# Measurements reported in article PMC8296708, “The pan HDAC inhibitor Givinostat improves muscle function and histological parameters in two Duchenne muscular dystrophy murine models expressing different haplotypes of the LTBP4 gene” (Skeletal Muscle, 2021).
# What was measured:
# mdx mice [1] = test: Grip strength test (maximal normalized strength, FNmax) in mdx mice; type: in vivo, mouse (C57BL/10ScSn-Dmd^mdx/J)
# Source text: For the efficacy studies, C57BL/10 J (Stock No: 000665) wild type (wt) and C57BL/10ScSn-Dmd^mdx/J (Stock No: 001801) 7–8-week-old male mice, DBA/2J wt (Stock No: 000671), and D2.B10-Dmd^mdx/J (Stock No: 013141) 6–7-week-old male mice were purchased from The Jackson Laboratories (Bar Harbor, Maine, USA). After 5 days of acclimatization in the animal facility, mice were randomized into different treatment groups based on their BW. C57BL/10J wt mice were assigned to the naive wt group (healthy mice that received no treatment, but were subjected to functional tests), whereas mdx mice were assigned to the following groups (9 mice/group; 4–5 mice/cage): naive mdx (mice that received no treatment, but were subjected to functional tests), vehicle (0.5% methylcellulose, p.o.), and Givinostat (0.1, 0.3, 1, 5, 10, 25, and 37.5 mg/kg, p.o.). DBA/2J mice were assigned to the naive wt group (healthy mice that received no treatment, but were subjected to functional tests), whereas D2.B10 mice were assigned to the following groups (12–13 mice/group; 4–5 mice/gage): vehicle (filtered tap water, p.o.), Givinostat (1, 5, 10, and 37.5 mg/kg, p.o.), prednisone 1 mg/kg, and Deflazacort 1 mg/kg (i.p.).
# In the efficacy studies, Givinostat powder (ITF2357) was suspended in 0.5% methylcellulose (Sigma-Aldrich) and administered p.o. (by gavage) at the doses of 0.1, 0.3, 1, 5, 10, 25, and 37.5 mg/kg qdx5x15weeks (administration volume per mouse: 10 mL/kg) in mdx mice (see Additional Figure 1A). Vehicle-treated mdx mice received 0.5% methylcellulose suspension. Givinostat suspension was stored at + 4 °C, and it was freshly prepared every 7 days. […] Water consumption was weekly monitored throughout the entire duration of the study weighing the bottle of each cage (maximum 4 mice per cage). […] All mice were monitored daily and tolerability was evaluated on the basis of BW and clinical signs.
# In both efficacy studies, the effectiveness of treatments was evaluated every week by measuring the forelimb strength by a grip strength meter (Ugo Basile SRL, Italy). BW of mdx (see Additional Figure 2) and D2.B10 mice (see Additional Figure 3) was also measured in order to normalize the absolute grip strength of each mouse with respect to its BW. […] The highest recorded value of maximal normalized strength (FNmax) obtained for each mouse at all the time points (from T0 to T15) was used for further analysis.
# After taking baseline readings for behavioral assays (FNmax and distance run by the animals), mice were re-randomized based on these two parameters, also considering the previous randomization performed on their BW. […]
# mdx mice [2] = test: Centralized nuclei (%) in muscles of mdx mice; type: in vivo, mouse (C57BL/10ScSn-Dmd^mdx/J); settings: T16
# Source text: Tibialis anterior (TA), gastrocnemius (GAS), DIA, and heart were collected from mice maintained under isoflurane anesthesia and sacrificed by cervical dislocation. These muscles were collected from C57BL/10J wt and mdx (5 mice/group) at the end of treatments and from DBA/2J wt and D2.B10 mice (5 mice/group) at two different time points to be examined by a pathologist (for more details see Additional Table 1). Due to the results obtained by the functional tests, muscles from only some treatment groups were analyzed in both DMD models (see Additional Table 1). All the collected muscles were fixed in 10% buffered formalin solution (Bio-optica, Milan, Italy) at + 4 °C for at least 48 h. After fixation, muscular samples were transversely trimmed, caged, and paraffin embedded overnight with an Automated Vacuum Tissue Processor Floor (ETP, Histo-Line Laboratories) and included in paraffin blocks. Serial transverse cross-sections (4 μm thick) were cut with a microtome (Leica RM 2255), collected onto uncoated glass slides, and stained using a standard protocol for hematoxylin and eosin (Mayer hematoxylin & Aqueous G Eosin 1%, Bio-Optica) and Sirius Red staining (Direct Red 80, Sigma-Aldrich). For the image analysis and quantitation, hematoxylin and eosin- and Sirius Red-stained slides were examined with an Olympus BX51 light microscope. From each sample, 1 to 3 random microphotographs at the magnification of × 4 and × 10 (TA, GAS and heart) or × 20 (DIA) were collected using Image-Pro Plus system. The digital images were processed by a pathologist using ImageJ software (U.S. National Institutes of Health, Bethesda, MD, USA). To quantify CSA and centralized nuclei (%) on hematoxylin and eosin-stained sections, one hundred myofibers were manually measured for each muscle/mouse using a tablet pen (Wacom Intruos) and analyzed by the ImageJ software after a linear calibration of 150 μm. The fibrotic area, corresponding to the area stained in red, was compared to the total area of the tissue section, and the results were expressed as percentage fibrosis. The % of fibrosis of muscles in the different treatment groups was expressed by averaging the three values obtained from each muscle.
# [3] = test system: in vivo pulmonary fibrosis model; set-up: method as in McKinsey TA, unpublished results; settings: administered with the diet; ref McKinsey TA, unpublished results; cited from earlier work
smiles,measurement,setting,value
CCN(CC)Cc1ccc2cc(COC(=O)Nc3ccc(C(=O)NO)cc3)ccc2c1 [Givinostat],FNmax level on treatment day 49,"mdx mice [1]; 37.5 mg/kg p.o., transient",comparable to that of wt healthy mice
same,Effect on maximal normalized strength (FNmax),mdx mice [1]; 0.1-37.5 mg/kg p.o. qdx5x15weeks,"remarkable, dose-dependent increase of the FNmax"
same,Dose of maximal efficacy on FNmax,mdx mice [1]; p.o. qdx5x15weeks,37.5 mg/kg
same,Persistence of beneficial effect on FNmax,mdx mice [1]; vs vehicle,remained significant up to day 105
same,Nuclear centralization in DIA,mdx mice [2]; 1 mg/kg,57 ± 2.9%
same,Nuclear centralization in GAS,mdx mice [2]; 1 mg/kg,67.6 ± 2.4%
same,Nuclear centralization in TA,mdx mice [2]; 1 mg/kg,71 ± 1.6%
same,Nuclear centralization in DIA,mdx mice [2]; 10 mg/kg,61.4 ± 3.5%
same,Nuclear centralization in GAS,mdx mice [2]; 10 mg/kg,58 ± 3%
same,Nuclear centralization in TA,mdx mice [2]; 10 mg/kg,73.2 ± 3.7%
same,Nuclear centralization in DIA,mdx mice [2]; 37.5 mg/kg,41.4 ± 4.5%
same,Nuclear centralization in GAS,mdx mice [2]; 37.5 mg/kg,61.3 ± 3.8%
same,Nuclear centralization in TA,mdx mice [2]; 37.5 mg/kg,60.8 ± 2.5%
same,Activity in in vivo pulmonary fibrosis model,[3],inactive
